Data reported in patent US5270041A, “Sterols, their fatty acid esters and glucosides; processes for their preparation; spontaneously dispersible agents containing these compounds, and their use for treatment of tumors” (Marigen S.A., priority 1989, dated 1993).

How the values were obtained:
[1] = test system: TSA: murine adenocarcinoma (spontaneous cancer of the breast); experiment: In-vitro plaque assay of MARIGENOL microemulsions, greatest cytotoxic dilution, TSA; type: cell-based; settings: cell line TSA; 5 h; microemulsion 0,1%
Protocol: A biological assay system using microtiter plates and serial dilutions has been developed Batches of 10^4 tumour cells per ml were set up in culture medium RPMI 1640 and […] with 10% of fetal calf serum (GIBCO); the cells are spread at a density low enough to enable them to grow during the assay in so-called non-confluent monolayers. Samples are added after 6-24 hours, with 100 μl per row, to which 100 μl of medium are added in the first well. Half of this mixture is withdrawn, transferred into the next well and again treated with 100 μl of medium, etc.
In the plaque assay, the samples are incubated at 37° C. for 3-5 days under 31/2% of CO2. They are then stained and fixed using 0.1% crystal violet (Fluka, Buchs) in a solution of 70% of methanol, 1% of formaldehyde and 29% water. The samples are evaluated under the microscope, magnification 300×. The greatest cytotoxic dilution is determined. The samples can also be evaluated quantitatively by means of scanning and absorption measurement in a spectrophotometer.

TSA adenocarcinoma = experiment: In-vivo assay on mice, TSA tumour growth, MARIGENOL 0,1% microemulsions; design: species or system mice (Balb-c); key: + swelling; settings: 0,1% microemulsion
Protocol: The in-vivo assays were carried out on female mice. Old Balb-c strain animals of 28-32 g body weight were used (Charles River, Milan). Used as comparison standards throughout was the spontaneous adenocarcinoma TSA, a murine tumour cell line which was provided regularly by Prof. Guido Forni, Istituto di Microbiologia, Universita degli Studi di Torino, Scuola di Medicina.
A series of groups of 5 test animals each were fed with ordinary test feed (NAFAG complete feed No. 850, from Nahr- und Futtermittel AG, Gossau).
14 days after the introduction (average latency period), the newly-formed tissue is palpitated; ditto after 21 and after 28 days, and in some cases 35, days. The mean of the length and width of the solid, distinct tumour mass under the skin is determined (postmortem recheck).
To test the activity of the preparations in live organisms, the remaining test animals receive a daily dose of 0.25 ml of a test preparation by tube, in addition to the ordinary test feed. After an adaptation period of 5-7 days, the tumour is introduced, likewise inguinally, with 80-100'000 TSA units, as for the controls. It takes in every single case, in the group and on repetition, thus permitting the statistical groups to be kept to a relatively low number.
The experimental set-up is the same as in the case of gavage. Instead of using a tube, the preparations to be tested are administered inguinally by injection (right flank, subcutaneously), at a rate of 0.25 ml 3 times per week.

CCCCCCCCCCCCCCCC(=O)O[C@H]1CC[C@@]2(C)C(=CC[C@H]3[C@@H]4CC[C@H]([C@H](C)/C=C/[C@@H](CC)C(C)C)[C@@]4(C)CC[C@@H]32)C1 [C 16:0 STIGMASTEROL, STIGMASTEROL-PALMITATE] was tested, and the “Active in dilution to 1:” value [1] was 80 1:.

CC/C=C\C/C=C\C/C=C\CCCCCCCC(=O)O[C@H]1CC[C@@]2(C)C(=CC[C@H]3[C@@H]4CC[C@H]([C@H](C)CC[C@@H](CC)C(C)C)[C@@]4(C)CC[C@@H]32)C1 [C 18:3-SITOSTEROL, stigmast-5-en-3-ol-9,12,15-octadecatrienoate] was tested, and the “Tumor mass Σ1/2 L + B” value (TSA adenocarcinoma; TSA after 14 days) was “+”, the “Tumor mass Σ1/2 L + B” value (TSA adenocarcinoma; TSA after 21 days) was “+” and the “Tumor mass Σ1/2 L + B” value (TSA adenocarcinoma; TSA after 28 days) was 1 mm.

In the case of CCCCC/C=C\C/C=C\CCCCCCCC(=O)O[C@H]1CC[C@@]2(C)C(=CC[C@H]3[C@@H]4CC[C@H]([C@H](C)CC[C@@H](CC)C(C)C)[C@@]4(C)CC[C@@H]32)C1 [β-Sitosterol-linoleate, stigmast-5-en-3-ol-9,12-octadecadienoate], the “Tumor mass Σ1/2 L + B” value (TSA adenocarcinoma; TSA after 14 days) is reported as 0 mm, the “Tumor mass Σ1/2 L + B” value (TSA adenocarcinoma; TSA after 21 days) is reported as “+” and the “Tumor mass Σ1/2 L + B” value (TSA adenocarcinoma; TSA after 28 days) is reported as 1 mm.

With “stigmast-5-en 3-ol-dodecenoate [C 12:1-SITOSTEROL]” the “Active in dilution to 1:” value [1] was 640 1:, the “Tumor mass Σ1/2 L + B” value (TSA adenocarcinoma; TSA after 14 days) was 1 mm and the “Tumor mass Σ1/2 L + B” value (TSA adenocarcinoma; TSA after 21 days) was 0 mm. For the same molecule, the “Tumor mass Σ1/2 L + B” value (TSA adenocarcinoma; TSA after 28 days) was 2 mm.

“stigmasta-5,22-dien-3-ol-doiecenoate [Stigmasterol-dodecenoate]” was tested, and the “Tumor mass Σ1/2 L + B” value (TSA adenocarcinoma; TSA after 14 days) was 0 mm, the “Tumor mass Σ1/2 L + B” value (TSA adenocarcinoma; TSA after 21 days) was 0 mm and the “Tumor mass Σ1/2 L + B” value (TSA adenocarcinoma; TSA after 28 days) was 2 mm.

In the case of “β-SITOSTEROLUNDECENOATE [C 11:1-SITOSTEROL]”, the “Active in dilution to 1:” value [1] is reported as 40 1:.
